Test results reported in patent US7858618B2, “Compounds” (Boehringer Ingelheim International GmbH, priority 2006, dated 2010).

biological target: T1, hBK1 receptor (Homo sapiens, UniProt P46663); assay: hBK1 receptor binding (displacement of [3H]-kallidin (DesArg10, Leu9) from membranes of CHO cells expressing the hBK1 receptor); conditions: CHO cell membranes expressing hBK1 receptor; 0.5 to 1.0 nM [3H]-kallidin (DesArg10, Leu9); 60 minutes at room temperature
T1 construct: expressed in transfected cells; host or cells: CHO cells
T1 sequence (P46663 1-353): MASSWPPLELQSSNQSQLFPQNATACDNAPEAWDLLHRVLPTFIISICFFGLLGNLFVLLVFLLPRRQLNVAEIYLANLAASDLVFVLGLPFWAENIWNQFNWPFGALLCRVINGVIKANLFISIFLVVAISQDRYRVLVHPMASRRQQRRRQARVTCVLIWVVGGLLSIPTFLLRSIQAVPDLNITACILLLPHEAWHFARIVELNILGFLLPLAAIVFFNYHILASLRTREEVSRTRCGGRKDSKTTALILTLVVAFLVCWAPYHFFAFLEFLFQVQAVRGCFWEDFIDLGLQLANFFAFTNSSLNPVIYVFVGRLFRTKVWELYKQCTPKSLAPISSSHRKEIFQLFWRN
Protocol: Description of the Method of hBK1 Receptor Binding
CHO cells expressing the hBK1 receptor are cultivated in Dulbecco's modified medium. The medium from confluent cultures is removed and the cells are washed with PBS buffer, scraped off and isolated by centrifugation. The cells are then homogenized in suspension and the homogenate is centrifuged and resuspended. The protein content is determined and the membrane preparation obtained in this manner is then frozen at −80° C.
After thawing, 200 μl of the homogenate (50 to 100 μg of proteins/assay) are incubated at room temperature with 0.5 to 1.0 nM of kallidin (DesArg10, Leu9), [3,4-prolyl-3,43H(N)] and increasing concentrations of the test substance in a total volume of 250 μl for 60 minutes. The incubation is terminated by rapid filtration through GF/B glass fibre filters which had been pretreated with polyethyleneimine (0.3%). The protein-bound radioactivity is measured in a TopCount NXT. Non-specific binding is defined as radioactivity bound in the presence of 1.0 μM of kallidin (DesArg10, Leu9), [3,4-prolyl-3,43H(N)]. The concentration/binding curve is analysed using a computer-assisted nonlinear curve fitting. The Ki which corresponds to the test substance is determined using the data obtained in this manner. […]

Ki [nM] | SMILES
6.2 | CN(CCC(=O)Nc1ccc(N2CCN(c3ccncc3)CC2)cc1)S(=O)(=O)c1cccc(Cl)c1Cl [(1)]
2.1 | COc1cc(C)c(S(=O)(=O)N(C)CCC(=O)Nc2ccc(N3CCN(c4ccncc4)CC3)cc2)c(C)c1 [(13)]
7 | COc1cc(C)c(S(=O)(=O)N(C)CCC(=O)Nc2ccc(N3CCN(c4ccncc4)CC3)nc2)c(C)c1 [(22)]
2.4 | COc1cc(C)c(S(=O)(=O)N(C)CCOCC(=O)N(C)CC2CCN(c3ccnc(C)c3)CC2)c(C)c1 [(53)]
0.7 | COc1cc(C)c(S(=O)(=O)N(C)CCOCC(=O)N(C)Cc2ccc(-c3cn4c(n3)CCCC4)cc2)c(C)c1 [(55)]
6.3 | COc1cc(C)c(S(=O)(=O)N(C)CCOCC(=O)N(C)Cc2ccc(CNC(C)C)cc2)c(C)c1 [(59)]
3.3 | COc1cc(C)c(S(=O)(=O)N(C)CCOCC(=O)N(C)CC2CCN(c3ccncc3)CC2)c(C)c1 [(61)]
4.6 | COc1cc(C)c(S(=O)(=O)N(C)CCOCC(=O)N(C)Cc2ccc(-c3cn(C)cn3)cc2)c(C)c1 [(66)]
0.4 | COc1cc(C)c(S(=O)(=O)N(C)CCOCC(=O)N(C)Cc2ccc(-c3cn(C)c(C)n3)cc2)c(C)c1 [(67)]
2.8 | COc1cc(C)c(S(=O)(=O)N(C)CCOCC(=O)N(C)Cc2ccc(CNC3CCCC3)cc2)c(C)c1 [(72)]
6.8 | COc1cc(C)c(S(=O)(=O)N(C)CCOCC(=O)N(C)Cc2ccc(-c3cn4ccccc4n3)cc2)c(C)c1 [(73)]
8.7 | CCC(CC)NCc1ccc(CN(C)C(=O)COCCN(C)S(=O)(=O)c2c(C)cc(OC)cc2C)cc1 [(77)]
5.8 | COc1cc(C)c(S(=O)(=O)N(C)CCOCC(=O)N(C)Cc2ccc(CNC(C)(C)C)cc2)c(C)c1 [(78)]
6.7 | CCN(CC)CC1CCN(c2ccc(NC(=O)CCN(C)S(=O)(=O)c3c(C)cc(OC)cc3C)cc2C)CC1 [(97)]
5 | COc1cc(C)c(S(=O)(=O)N(C)CCOCC(=O)N(C)Cc2ccc(CN(C)C3CCCC3)cc2)c(C)c1 [(102)]
6 | COc1cc(C)c(S(=O)(=O)N(C)CCOCC(=O)N(C)Cc2ccc(CN3CCCC3)cc2)c(C)c1 [(109)]
4.4 | COc1cc(C)c(S(=O)(=O)N(C)CCOCC(=O)N(C)CC2CCN(c3cc[n+](C)cc3)CC2)c(C)c1 [(114)]
0.99 | COc1cc(C)c(S(=O)(=O)N(C)CCOCC(=O)N(C)Cc2ccc(-c3c[nH]c(C)n3)cc2)c(C)c1 [(117)]
5.7 | COc1cc(C)c(S(=O)(=O)N(C)CCCCC(=O)N(C)CC2CCN(c3ccncc3)CC2)c(C)c1 [(130)]
5.2 | COc1cc(C)c(S(=O)(=O)N(C)CCC(=O)Nc2ccc(N3CCC(N(C)C)CC3)c(Cl)c2)c(C)c1 [(180)]
7.1 | CCN(CC)CC1CCN(c2ccc(NC(=O)CCN(C)S(=O)(=O)c3c(C)cc(OC)cc3C)cc2Cl)CC1 [(181)]

Ki [nM] | SMILES
4.8 | COc1cc(C)c(S(=O)(=O)N(C)CCC(=O)Nc2ccc(N3CCC(CCN(C)C)CC3)c(Cl)c2)c(C)c1 [(182)]
6.6 | COc1cc(C)c(S(=O)(=O)N(C)CCC(=O)Nc2cc(F)c(N3CCC(N(C)C)CC3)cc2C)c(C)c1 [(183)]
1.3 | COc1cc(C)c(S(=O)(=O)N(C)CCC(=O)Nc2cc(Br)c(N3CCC(N(C)C)CC3)cc2C)c(C)c1 [(184)]
3.4 | COc1cc(C)c(S(=O)(=O)N(C)CCC(=O)Nc2cc(C)c(N3CCC(N(C)C)CC3)cc2Cl)c(C)c1 [(186)]
9.4 | COc1cc(C)c(S(=O)(=O)N(C)CCC(=O)NC2CCN(c3ccc(CN4CCCC4)cc3Cl)CC2)c(C)c1 [(188)]
4.9 | COc1cc(C)c(S(=O)(=O)N(C)CCC(=O)NC2CCN(c3ncc(CN4CCCC4)cc3Cl)CC2)c(C)c1 [(216)]
7.8 | COc1cc(C)c(S(=O)(=O)N(C)CCC(=O)NCc2ccc(N3CCC(N4CCCC4)CC3)c(C)c2)c(C)c1 [(269)]
6.32 | COc1cc(C)c(S(=O)(=O)N(C)CCC(=O)N[C@H]2CC[C@H](N3CCC(CCN4CCCC4)CC3)CC2)c(C)c1 [(303)]
2.8 | COc1cc(C)c(S(=O)(=O)N(C)CCOCC(=O)N(C)Cc2ccc(N(C)CCN(C)C)cc2)c(C)c1 [(323)]
0.94 | COc1cc(C)c(S(=O)(=O)N(C)CCOCC(=O)N(C)Cc2ccc(NCCN(C)C)cc2)c(C)c1 [(325)]
6.5 | COc1cc(C)c(S(=O)(=O)N(C)CCOCC(=O)N(C)Cc2ccc(C3CCN(C)CC3)cc2)c(C)c1 [(326)]
8.65 | COc1cc(C)c(S(=O)(=O)N(C)CCOCC(=O)N(C)Cc2ccc(N3CCC(N(C)C)C3)cc2)c(C)c1 (stereo not shown) [(334)]
9.37 | COc1cc(C)c(S(=O)(=O)N(C)CCOCC(=O)N(C)Cc2ccc(N3CCCC3CN(C)C)cc2)c(C)c1 (stereo not shown) [(335)]
1.11 | COc1cc(C)c(S(=O)(=O)N(C)CCOCC(=O)N(C)Cc2ccc(CN3CCCC3)cc2C)c(C)c1 [(338)]
9.2 | COc1cc(C)c(S(=O)(=O)N(C)CCOCC(=O)N(C)Cc2ccc(OCCN(C)C)c(Cl)c2)c(C)c1 [(352)]
6.1 | COc1cc(C)c(S(=O)(=O)N(C)CCOCC(=O)N(C)Cc2ccc(N3CCC(N4CCCC4)C3)cc2)c(C)c1 (stereo not shown) [(353)]
8.8 | COc1cc(C)c(S(=O)(=O)N(C)CCOCC(=O)N(C)Cc2ccc(N3CCC(N(C)C)C3)cc2Cl)c(C)c1 (stereo not shown) [(356)]
3.5 | COc1cc(C)c(S(=O)(=O)N(C)CCOCC(=O)N(C)Cc2ccc(OCCN3CCCC3)cc2)c(C)c1 [(358)]
4.4 | COc1cc(C)c(S(=O)(=O)N(C)CCOCC(=O)N(C)Cc2ccc3nc(N)ccc3c2)c(C)c1 [(360)]
7.4 | COc1cc(C)c(S(=O)(=O)N(C)CCOCC(=O)N(C)Cc2ccc3[nH]c(N)nc3c2)c(C)c1 [(361)]
2.4 | COc1cc(C)c(S(=O)(=O)N(C)CCOCC(=O)N(C)Cc2ccc3nc(N(C)C)ccc3c2)c(C)c1 [(365)]

Ki [nM] | SMILES
2.7 | CNc1ccc2cc(CN(C)C(=O)COCCN(C)S(=O)(=O)c3c(C)cc(OC)cc3C)ccc2n1 [(367)]
1.52 | COc1cc(C)c(S(=O)(=O)N(C)CCOCC(=O)N(C)Cc2ccc3nc(NCCN(C)C)ccc3c2)c(C)c1 [(368)]
3.8 | COc1cc(C)c(S(=O)(=O)N(C)CCOCC(=O)N(C)Cc2ccc3c(c2)nc(N)n3C)c(C)c1 [(369)]
2.39 | COc1cc(C)c(S(=O)(=O)N(C)CCOCC(=O)N(C)CC2CCC(NCCN(C)C)CC2)c(C)c1 (stereo not shown) [(372)]
8.1 | COc1cc(C)c(S(=O)(=O)N(C)CCOCC(=O)N(C)Cc2ccc(N3CCCC(N(C)C)C3)cc2C)c(C)c1 (stereo not shown) [(381)]
6.2 | COc1cc(C)c(S(=O)(=O)N(C)CCOCC(=O)N(C)C[C@H]2CC[C@@H](NCCN(C)C)CC2)c(C)c1 [(383)]
9.3 | COc1cc(C)c(S(=O)(=O)N(C)CCOCC(=O)N(C)CC2CCN(C3CCN(C)CC3)CC2)c(C)c1 [(384)]
6.4 | COc1cc(C)c(S(=O)(=O)N(C)CCOCC(=O)N(C)Cc2ccc(N3CC[C@@H](N(C)C)C3)cc2)c(C)c1 [(385)]
6.3 | COc1cc(C)c(S(=O)(=O)N(C)CCOCC(=O)N(C)C(C)c2ccc3c(c2)CCN(C)CC3)c(C)c1 (stereo not shown) [(386)]
3.7 | COc1cc(C)c(S(=O)(=O)N(C)CCOCC(=O)N(C)Cc2ccc(N(C)CCN(C)C)cc2C)c(C)c1 [(389)]
8.3 | COc1cc(C)c(S(=O)(=O)N(C)CCOCC(=O)N(C)C[C@H]2CC[C@H](CN3CCC3)CC2)c(C)c1 [(392)]
1.6 | COc1cc(C)c(S(=O)(=O)N(C)CCOCC(=O)N(C)[C@H]2CCN(C3CCN(C)CC3)C2)c(C)c1 [(393)]
7.5 | COc1cc(C)c(S(=O)(=O)N(C)CCOCC(=O)N(C)C2CCN(C3CCN(C)CC3)CC2)c(C)c1 [(397)]
0.74 | COc1cc(C)c(S(=O)(=O)N(C)CCOCC(=O)N(C)[C@@H]2CCN(C3CCN(C(C)C)CC3)C2)c(C)c1 [(398)]
3 | COc1cc(C)c(S(=O)(=O)N(C)CCOCC(=O)N(C)[C@H]2CCN(C3CCN(C(C)C)CC3)C2)c(C)c1 [(399)]
0.79 | CCN1CCC(N2CC[C@@H](N(C)C(=O)COCCN(C)S(=O)(=O)c3c(C)cc(OC)cc3C)C2)CC1 [(400)]
2.7 | CCN1CCC(N2CC[C@H](N(C)C(=O)COCCN(C)S(=O)(=O)c3c(C)cc(OC)cc3C)C2)CC1 [(401)]
9.3 | COc1cc(C)c(S(=O)(=O)N(C)CCOCC(=O)N(C)Cc2ccc(OCC3CCCN3C)cc2)c(C)c1 (stereo not shown) [(402)]
2.8 | COc1cc(C)c(S(=O)(=O)N(C)CCOCC(=O)N(C)Cc2ccc3[nH]c(CN(C)C)nc3c2)c(C)c1 [(404)]
1.2 | COc1cc(C)c(S(=O)(=O)N(C)CCOCC(=O)N(C)C2CCc3cc(OCCN4CCCC4)ccc32)c(C)c1 (stereo not shown) [(418)]
0.65 | COc1cc(C)c(S(=O)(=O)N(C)CCOCC(=O)N(C)C2CCC(N3CCC(CN4CCCC4)CC3)CC2)c(C)c1 (stereo not shown) [(419)]

SMILES | Ki [nM]
COc1cc(C)c(S(=O)(=O)N(C)CCC(=O)Nc2ccc(N3CCN(c4cc[n+](C)cc4)CC3)cc2)c(C)c1 [(227)] | 4.8
